Source: patent US11466011B2, “Compounds and their use as inhibitors of N-myristoyl transferase” (Imperial College Innovations Limited, priority 2015, dated 2022)

Molecular target: Trypanosoma brucei (Tb) N-myristoyl transferase (Trypanosoma brucei brucei, UniProt Q388H8)
Assay: Fluorescence-based NMT assay (a), adapted version, TbNMT
Format: biochemical

Trypanosoma brucei (Tb) N-myristoyl transferase, sequence (Q388H8 entry or part of it): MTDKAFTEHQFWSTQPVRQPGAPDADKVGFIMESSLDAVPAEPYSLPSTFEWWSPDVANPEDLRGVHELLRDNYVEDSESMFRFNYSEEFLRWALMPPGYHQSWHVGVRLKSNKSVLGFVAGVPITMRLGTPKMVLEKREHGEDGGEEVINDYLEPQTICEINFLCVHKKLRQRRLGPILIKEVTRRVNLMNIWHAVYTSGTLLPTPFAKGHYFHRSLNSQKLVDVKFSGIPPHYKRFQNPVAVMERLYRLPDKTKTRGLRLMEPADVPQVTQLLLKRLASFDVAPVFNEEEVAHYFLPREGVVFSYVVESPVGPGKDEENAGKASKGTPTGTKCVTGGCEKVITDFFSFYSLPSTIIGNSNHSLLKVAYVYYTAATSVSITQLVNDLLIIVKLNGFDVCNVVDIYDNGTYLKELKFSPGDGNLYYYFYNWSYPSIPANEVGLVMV

Work on `Cc1nn(C)c(C)c1CCOc1cc(F)ccc1-c1ccc2[nH]nc(CN(C)C)c2c1` [Example 7] yielded an IC50 of 1 to 100 nM.
